Results on one molecule are retold here after patent US20150133493A1, “COUMARIN-BASED COMPOUNDS FOR THE TREATMENT OF ALZHEIMER'S DISEASE AND CANCER” (Sloan-Kettering Institute for Cancer Research, priority 2008, published 2015).

Assay [1] relates to HEK-293 cells transfected with ΔE Notch construct. Put plainly: Cell-based Notch cleavage assay (NICD production). The settings on record: HEK-293, ΔE Notch, 24 hrs; Western blot; CS-1 up to 30 μM. How it is done: FIG. 3. Cellular evaluation of the coumarin-dimer CS-1 and its selective inhibition of Aβ42. Compounds were incubated with the APPsw-N2A mouse neuroblastoma cells for 24 hours and media were analyzed by biotinylated 4G8 and ruthenylated antibodies specific for each respective cleavage product. […] (d) Immunoprecipitation mass spectrometry analysis of CS-1 effect on secreted β-amyloid species. Aβ peptides were immunoprecipitated using 4G8 antibody and isolated with Protein G+/A agarose beads. Samples were analyzed by MALDI-MS. Samples shown are representative and each data point was performed in triplicate. (e) Cell-based Notch cleavage assay. HEK-293 cells were transfected with ΔE Notch construct and then Compound E and CS-1 were evaluated for their ability to inhibit γ-secretase-mediated Notch intracellular domain production. […] The generated AICD and APP-CTFs were detected by Western Blotting using APPc antibody. […]
We next determined the ability of CS-1 to suppress cellular γ-secretase activity for Notch1 cleavage. […]
ΔE Notch or empty pcDNA3.1(−) construct was transfected into HEK-293 cells in a 6-well format using Lipofectamine reagent, following manufacturer's instructions. […] Samples were then centrifuged at 13,000 rpm's at 4° C. and the supernatent was collected and analyzed by Western analysis using either anti-Myc antibody at a 1:1000 dilution or anti-NICD-1 SM320 at a 1:500 dilution.
(In general: In western blotting, separated proteins are transferred to a membrane and probed.)

For assay [2], the target named is T1, γ-secretase (Homo sapiens, UniProt P49768).
T1 construct: endogenous in cells
Nature of the assay: In vitro γ-secretase activity assay, Aβ42 production (ECL). The settings on record: in words. In kind it is biochemical. How it is done:
FIG. 2. In vitro characterization of coumarin-dimer allosteric GSIs against various γ-secretase cleavage products. […] The IC50 values were calculated from the dose response curves using a non-linear regression analysis in Prism software. […] The three β-amyloid-detection in vitro assays were modified from our previously reported assay (21) using a biotinylated substrate that eliminated the requirement of anti-β-amyloid biotinylated antibody. Ruthenylated antibodies that detected the -40, -42, or -38 cleavage site were incorporated to detect proteolysis indicative of γ-secretase activity. In vitro Notch assay utilized a recombinant transmembrane portion of the Notch peptide and anti-Notch1 SM320 antibody in conjunction with ruthenylated anti-rabbit secondary antibodies. Electrochemiluminescence was quantified on an Analyzer (BioVeris).
Briefly, recombinant peptide substrate was incubated with γ-secretase (40 μg/ml) in the presence or absence of test compound. […] The reaction was incubated for 2.5 hr at 37° C. and stopped by adding RIPA buffer (150 mM NaCl, 1.0% NP-40, 0.5% sodium deoxycholate, 0.1% SDS, 50 mM Tris HCl, pH 8.0). […] The amount of product was determined using synthetic peptide or recombinant standards.
Cell membranes and solubilized γ-secretase were prepared as described previously (36). The in vitro and cell γ-secretase assays detecting either Aβ38, Aβ40, or Aβ42 cleavage were performed similar as previously described (21, 36). Cleaved product was detected using ruthenylated antibodies that recognize specific APP cleavage sites (Aβ31-38*, G2-10*, or G2-11* antibody for Aβ38, Aβ40, or Aβ42 respectively). The Km and Vmax in the presence and absence of γ-secretase inhibitors were analyzed by non-linear curve fit using the software SigmaPlot 8.0 with the Michaelis-Menten equation (v=Vm [S]/(Km+[S]; v: initial rate; Vm: maximum velocity; Km: the Michaelis-Menten constant, S: substrate).

Entries after “also recorded” stand apart in the source; their conditions may differ.

In the case of `C[C@H](NC(=O)Cc1cc(F)cc(F)c1)C(=O)N[C@H]1N=C(c2ccccc2)c2ccccc2N(C)C1=O` [Compound E], the “effect on Notch intracellular domain (NICD) production” value in assay [1] is on record as “able to prevent production of NICD; also recorded: effectively blocked all production”. Further, in assay [2], the “inhibitory potency and selectivity against γ-secretase cleavage activities in vitro” value was “did not exhibit any significant selectivity”.
